The numbers were not newly measured in patent US9913917B2, “Biocompatible fluorescent metal oxide nanoparticles” (VisEn Medical, Inc., priority 2005, dated 2018), which cites them from elsewhere.

The conditions of this data set: free fluorochrome.

Take Cy5.5: the Absorbance max was 675 nm and the εmax is given as 250,000 M^−1cm^−1.
